Legend:
Format in all cases: in vivo, BALB/c mice
[1] = system: adriamycin induced FSGS mice; assay: Analysis of urine protein and renal function in mouse FSGS model; details: osthole 30 mg/kg daily intraperitoneal, vs pathological control group
Method: (§1) Experiments were performed on 8-week-old female BALB/c mice. The mice were separated into 3 groups at 8-weeks old. One of the groups were injected intravenously with normal saline to be used as normal controls, where the pathological control group and the osthole treated group were intravenously injected with a single dose of adriamycin (0.1 mg/10 g body weight) to induce FSGS, wherein the osthole treated group is intraperitoneally injected with osthole at a daily dose of 30 mg/kg body weight starting from 6 hours before FSGS induction by adriamycin. After intravenous injection of adriamycin, osthole was continuously given to the osthole treated group through intraperitoneal injection with a daily dose of 30 mg/kg body weight until they were sacrificed 28 days after FSGS induction. The pathological control group were given vehicle by intraperitoneal injection in the same fashion. Urine samples were collected in metabolic cages on days 3, 7, 14, and 21. Mice were sacrificed at day 7 or 28 post disease induction. Renal cortical tissues, spleen and serum were collected and stored properly for further analysis. Mice urine samples were collected by metabolic cages. Proteinuria was first tested with test paper, following the measurement of protein concentration with BCA Protein Assay Kit (PIERCE), where the urinary protein index was illustrated by 24-hour proteinuria (urinary protein concentration/urinary creatinine concentration). In addition, blood was collected through the eye socket, after separation, serum specimen was obtained, which was absorbed into Fuji Ori-Chem Slide and measured by machine (Fuji Photo Film Co., Tokyo, Japan) to read the data.

[2] = system: adriamycin induced FSGS mice; assay: Pathologic evaluation of kidney sections (H&E) in mouse FSGS model; details: osthole 30 mg/kg daily intraperitoneal; 7th and 28th day; FIG. 2
Method: as §1, with “[…] Renal pathology was examined under optical microscope and renal lesions was scored. or EPHLs and sclerosis, at least 50 glomeruli in sections” for “Mice urine samples”, “examined for each mouse.” for “collected by metabolic cages. Proteinuria was first tested with test paper, following the measurement of protein concentration with BCA Protein Assay Kit (PIERCE), where the urinary protein index was illustrated by 24-hour proteinuria (urinary protein concentration/urinary creatinine concentration). In addition, blood was collected through the eye socket, after separation, serum specimen was obtained, which was absorbed into Fuji Ori-Chem Slide and measured by machine (Fuji Photo Film Co., Tokyo, Japan) to read the data.”

[3] = system: adriamycin induced FSGS mice; assay: Evaluation of renal fibrosis (collagen IV IHC, Sirius red staining) in mouse FSGS model; details: osthole 30 mg/kg daily intraperitoneal
Method: as §1, with “analysis.” for “analysis. Mice urine samples were collected by metabolic cages. Proteinuria was first tested with test paper, following the measurement of protein concentration with BCA Protein Assay Kit (PIERCE), where the urinary protein index was illustrated by 24-hour proteinuria (urinary protein concentration/urinary creatinine concentration).”, “immunohistochemistry” for “blood”, “also performed. […] A quantitative image analysis software Pax-it; […], Villa Park, Ill., USA) was used to analyze” for “collected through”, “staining results.” for “eye socket, after separation, serum specimen was obtained, which was absorbed into Fuji Ori-Chem Slide and measured by machine (Fuji Photo Film Co., Tokyo, Japan) to read the data.”

ROS (superoxide anion) = assay: Reactive oxygen species (ROS) determination in mouse FSGS model; details: osthole 30 mg/kg daily intraperitoneal, 28th day
Method: Experiments were performed on 8-week-old female BALB/c mice. The mice were separated into 3 groups at 8-weeks old. One of the groups were injected intravenously with normal saline to be used as normal controls, where the pathological control group and the osthole treated group were intravenously injected with a single dose of adriamycin (0.1 mg/10 g body weight) to induce FSGS, wherein the osthole treated group is intraperitoneally injected with osthole at a daily dose of 30 mg/kg body weight starting from 6 hours before FSGS induction by adriamycin. After intravenous injection of adriamycin, osthole was continuously given to the osthole treated group through intraperitoneal injection with a daily dose of 30 mg/kg body weight until they were sacrificed 28 days after FSGS induction. The pathological control group were given vehicle by intraperitoneal injection in the same fashion. Urine samples were collected in metabolic cages on days 3, 7, 14, and 21. […] Lucigenin was used to react with the ROS in urine, and detected with Hidex microplate luminometer (Finland), the results were represented as reactive luminescence units (RLU) per 15 min per milligram dry weight (i.e., RLU/15 min/mg dry weight). ROS in kidney tissues were detected with dihydroethidium (DHE), and quantitation was done by determining the ratio of signal positive nucleus/total nucleus in each kidney trans-section.

Nrf2 pathway = assay: Anti-oxidative signaling pathway in kidney tissues (Nrf2 Western blot, HO-1 ELISA, GPx activity) in mouse FSGS model; details: kidney tissue, osthole 30 mg/kg daily intraperitoneal, FIG. 6
Method: as §1, with “analysis.” for “analysis. Mice urine samples were collected by metabolic cages. Proteinuria was first tested with test paper, following the measurement of protein concentration with BCA Protein Assay Kit (PIERCE), where the urinary protein index was illustrated by 24-hour proteinuria (urinary protein concentration/urinary creatinine concentration). In addition, blood was collected through the eye socket, after separation, serum specimen was obtained, which was absorbed into Fuji Ori-Chem Slide and measured by machine (Fuji Photo Film Co., Tokyo, Japan) to read the data.”
(§2) Cytoplasmic and nuclear proteins were extracted from renal tissues using a Nuclear Extract Kit (Active Motif, Tokyo, Japan) according to the manufacturer's instructions. Protein extract was separated by electrophoresis and blotted. Target proteins were detected by Western blot analysis using primary antibodies against mouse Nrf2 (Santa Cruz), COX-2 (Santa Cruz), caspase-3 (Cell Signaling Technology, MA, USA), or caspase-9 (Cell Signaling Technology, MA, USA). […] Lastly, secondary antibodies were added and their signals were detected by chemiluminescence.
(§3) Serum PEG2 and renal HO-1 levels in mice were determined by enzyme linked immunosorbent assay according to the manufacturer's (R&D, U.S.A., Active Motif) instructions.
GPx activity in renal tissues was measured using a commercial glutathione peroxidase assay kit (Cayman, Mich., USA) according to the manufacturer's instructions. […]

[4] = system: adriamycin induced FSGS mice; assay: F4/80 immunostaining of monocyte/macrophage infiltration in kidney tissues in mouse FSGS model; details: osthole 30 mg/kg daily intraperitoneal; 28th day; FIG. 7
Method: as §1, with “analysis.” for “analysis. Mice urine samples were collected by metabolic cages. Proteinuria was first tested with test paper, following the measurement of protein concentration with BCA Protein Assay Kit (PIERCE), where the urinary protein index was illustrated by 24-hour proteinuria (urinary protein concentration/urinary creatinine concentration).”, “immunohistochemistry” for “blood”, “also performed. […] A quantitative image analysis software Pax-it; […], Villa Park, Ill., USA) was used to analyze” for “collected through”, “staining results.” for “eye socket, after separation, serum specimen was obtained, which was absorbed into Fuji Ori-Chem Slide and measured by machine (Fuji Photo Film Co., Tokyo, Japan) to read the data.”

NF-κB p65 = NF-κB p65 immunostaining in kidney tissues in mouse FSGS model; details: osthole 30 mg/kg daily intraperitoneal; 28th day; FIG. 8
Method: as §1, with “analysis.” for “analysis. Mice urine samples were collected by metabolic cages. Proteinuria was first tested with test paper, following the measurement of protein concentration with BCA Protein Assay Kit (PIERCE), where the urinary protein index was illustrated by 24-hour proteinuria (urinary protein concentration/urinary creatinine concentration).”, “immunohistochemistry” for “blood”, “also performed. […] A quantitative image analysis software Pax-it; […], Villa Park, Ill., USA) was used to analyze” for “collected through”, “staining results.” for “eye socket, after separation, serum specimen was obtained, which was absorbed into Fuji Ori-Chem Slide and measured by machine (Fuji Photo Film Co., Tokyo, Japan) to read the data.”

COX-2 and PGE2 = assay: Renal COX-2 (Western blot) and serum PGE2 (ELISA) in mouse FSGS model; details: osthole 30 mg/kg daily intraperitoneal, 28th day
Method: Experiments were performed on 8-week-old female BALB/c mice. The mice were separated into 3 groups at 8-weeks old. One of the groups were injected intravenously with normal saline to be used as normal controls, where the pathological control group and the osthole treated group were intravenously injected with a single dose of adriamycin (0.1 mg/10 g body weight) to induce FSGS, wherein the osthole treated group is intraperitoneally injected with osthole at a daily dose of 30 mg/kg body weight starting from 6 hours before FSGS induction by adriamycin. […]
as §2, with “Protein extract was separated by electrophoresis and blotted.” left out
as §3

[5] = system: adriamycin induced FSGS mice; assay: TUNEL measurement of apoptosis in kidney tissues in mouse FSGS model; details: osthole 30 mg/kg daily intraperitoneal; 28th day; FIG. 10
Method: Experiments were performed on 8-week-old female BALB/c mice. The mice were separated into 3 groups at 8-weeks old. One of the groups were injected intravenously with normal saline to be used as normal controls, where the pathological control group and the osthole treated group were intravenously injected with a single dose of adriamycin (0.1 mg/10 g body weight) to induce FSGS, wherein the osthole treated group is intraperitoneally injected with osthole at a daily dose of 30 mg/kg body weight starting from 6 hours before FSGS induction by adriamycin. After intravenous injection of adriamycin, osthole was continuously given to the osthole treated group through intraperitoneal injection with a daily dose of 30 mg/kg body weight until they were sacrificed 28 days after FSGS induction. The pathological control group were given vehicle by intraperitoneal injection in the same fashion. Urine samples were collected in metabolic cages on days 3, 7, 14, and 21. Mice were sacrificed at day 7 or 28 post disease induction. Renal cortical tissues, spleen and serum were collected and stored properly for further analysis. TUNEL (Terminal deoxynucleotidyl transferase dUTP nick end labeling) was used for the detection of apoptosis. Kidney sections were prepared by fixing with formalin and embedded in paraffin. […]

[6] = system: caspase-3, caspase-8 and caspase-9; assay: Western blot analysis of caspase-3, caspase-8 and caspase-9 in kidney tissues in mouse FSGS model; details: kidney tissue
Method: Experiments were performed on 8-week-old female BALB/c mice. The mice were separated into 3 groups at 8-weeks old. One of the groups were injected intravenously with normal saline to be used as normal controls, where the pathological control group and the osthole treated group were intravenously injected with a single dose of adriamycin (0.1 mg/10 g body weight) to induce FSGS, wherein the osthole treated group is intraperitoneally injected with osthole at a daily dose of 30 mg/kg body weight starting from 6 hours before FSGS induction by adriamycin. After intravenous injection of adriamycin, osthole was continuously given to the osthole treated group through intraperitoneal injection with a daily dose of 30 mg/kg body weight until they were sacrificed 28 days after FSGS induction. The pathological control group were given vehicle by intraperitoneal injection in the same fashion. Urine samples were collected in metabolic cages on days 3, 7, 14, and 21. Mice were sacrificed at day 7 or 28 post disease induction. Renal cortical tissues, spleen and serum were collected and stored properly for further analysis. Cytoplasmic and nuclear proteins were extracted from renal tissues using a Nuclear Extract Kit (Active Motif, Tokyo, Japan) according to the manufacturer's instructions. Protein extract was separated by electrophoresis and blotted. Target proteins were detected by Western blot analysis using primary antibodies against mouse Nrf2 (Santa Cruz), COX-2 (Santa Cruz), caspase-3 (Cell Signaling Technology, MA, USA), or caspase-9 (Cell Signaling Technology, MA, USA). Antibodies against histone H3 (Cell Signaling, CO, USA) or β-actin (Santa Cruz) were used as internal controls for the nuclear and cytosolic target proteins, respectively. Lastly, secondary antibodies were added and their signals were detected by chemiluminescence.

[7] = osthole 30 mg/kg daily intraperitoneal, vs pathological control group, FIG. 11

Question: With COc1ccc2ccc(=O)oc2c1CC=C(C)C [osthole] as the compound, how does the “urine protein concentration (urine protein/urine creatinine ratio)” value ([1]; 7th to 28th day, FIG. 1A) read?
Answer: almost be completely suppressed

Question: What about the “blood urea nitrogen (BUN)” value ([1]; 28th day, FIG. 1B) of the same compound?
Answer: lower BUN and Cr concentration, similar to that of the normal control group

Question: What about the “serum creatinine (Cr)” value ([1]; 28th day, FIG. 1C) of the same compound?
Answer: lower BUN and Cr concentration, similar to that of the normal control group

Question: And the “disease progression of glomerular sclerosis (histopathology)” value [2]?
Answer: significantly suppress the disease progression of glomerular sclerosis

Question: What about the “fibrosis of the renal tissue (Sirius red staining)” value ([3]; 28th day, FIG. 4) of the same compound?
Answer: suppress fibrosis of the renal tissue, similar to the normal control group

Question: And the “collagen IV expression in glomerular tissue (IHC)” value ([3]; FIG. 3)?
Answer: significantly suppress collagen IV expression in glomerular tissue

Question: And the “superoxide anion (ROS) in serum” value (ROS (superoxide anion); FIG. 5A)?
Answer: suppressed exhibition of such phenomenon

Question: What about the “superoxide anion (ROS) in kidney tissue” value (ROS (superoxide anion); FIG. 5B) of the same compound?
Answer: suppressed exhibition of such phenomenon

Question: And the GPx activity (Nrf2 pathway)?
Answer: significantly increase HO-1 expression and GPx activity

Question: And the HO-1 expression (Nrf2 pathway)?
Answer: significantly increase HO-1 expression and GPx activity

Question: What about the “Nrf2 translocation into the nucleus” value (Nrf2 pathway; vs pathological control group) of the same compound?
Answer: significantly increase the Nrf2 translocation

Question: And the “monocyte/macrophage infiltration (F4/80) in kidney tissues” value [4]?
Answer: significantly reduced infiltration

Question: And the “NF-κB p65 nuclear translocation in kidney tissues” value (NF-κB p65)?
Answer: can be suppressed by osthole

Question: And the “COX-2 expression level (renal)” value (COX-2 and PGE2; FIG. 9A-B)?
Answer: restored to levels similar to the normal control group

Question: What about the “PGE2 expression level (serum)” value (COX-2 and PGE2; FIG. 9C) of the same compound?
Answer: restored to levels similar to the normal control group

Question: What about the “apoptosis in kidney tissues (TUNEL staining)” value [5] of the same compound?
Answer: can be suppressed by administration of osthole

Question: What about the “expression level of caspase-8” value ([6]; data not shown) of the same compound?
Answer: did not show significant difference

Question: What about the “caspase-3 in activated state (p17 fragment)” value [6, 7] of the same compound?
Answer: suppressed significantly

Question: And the “caspase-9 in activated state (p37 fragment)” value [6, 7]?
Answer: suppressed significantly
